Source: US12064427B2, “Pharmaceutical compositions comprising (S)-4-(4-(4-(((2-(2,6-dioxopiperidin-3-yl)-1-oxoisoindolin-4-yl)oxy)methyl)benzyl)piperazin-1-yl)-3-fluorobenzonitrile and methods of using the same” (Celgene Corporation, priority 2019, dated 2024)
Blank lines part the entries; values can stand above or below the compound they belong to.

Assays:
[1] = Binary drug-excipient compatibility study; settings: binary mixture with Compound 1, open dish, 50° C./75% RH, 3 and 6 weeks vs 5° C. control
NCI-H929-1051 = test: Cell proliferation assay (CellTitre-Glo, 120 h); settings: Homo sapiens, read-out: NCI-H929.1051 120 h IC50
MM cell lines = test: Cell proliferation assay (CellTitre-Glo, 120 h), four lines together; settings: Homo sapiens, read-out: antiproliferative IC50 values
NCI-H929 = test: Cell proliferation assay (CellTitre-Glo, 120 h); settings: Homo sapiens, NCI-H929, 120 h, read-out: NCI-H929 120 h IC50
OPM2-P10 = test: Cell proliferation assay (CellTitre-Glo, 120 h); settings: Homo sapiens, read-out: OPM-2.P10 120 h IC50
OPM2 = test: Cell proliferation assay (CellTitre-Glo, 120 h); settings: Homo sapiens, OPM-2, 120 h, read-out: OPM-2 120 h IC50
[2] = Two-stage dissolution (precipitation risk) of 2 mg BIC; format: physicochemical; settings: based on two-stage dissolution findings
Description: The precipitation risk of prototype BIC formulations were studied by a two-stage method (Stage 1 under sink condition and Stage 2 under non-sink condition) for high strength (2 mg).
A two-stage dissolution study was carried out on prototype formulations, wherein the dissolution medium for Stage 1 was 0.01N HCl. […] Based on the two-stage dissolution findings the precipitation risk is considered low for Compound 1.

dopamine D2S receptor = biological target: T1, dopamine D2S receptor (Homo sapiens, UniProt P14416); test: Dopamine D2S receptor binding at 10 μM (transfected HEK-293 membranes); settings: inhibition of control radioligand binding
T1 construct: host or cells: HEK-293
T1 sequence (P14416 1-414 isoform P14416-2): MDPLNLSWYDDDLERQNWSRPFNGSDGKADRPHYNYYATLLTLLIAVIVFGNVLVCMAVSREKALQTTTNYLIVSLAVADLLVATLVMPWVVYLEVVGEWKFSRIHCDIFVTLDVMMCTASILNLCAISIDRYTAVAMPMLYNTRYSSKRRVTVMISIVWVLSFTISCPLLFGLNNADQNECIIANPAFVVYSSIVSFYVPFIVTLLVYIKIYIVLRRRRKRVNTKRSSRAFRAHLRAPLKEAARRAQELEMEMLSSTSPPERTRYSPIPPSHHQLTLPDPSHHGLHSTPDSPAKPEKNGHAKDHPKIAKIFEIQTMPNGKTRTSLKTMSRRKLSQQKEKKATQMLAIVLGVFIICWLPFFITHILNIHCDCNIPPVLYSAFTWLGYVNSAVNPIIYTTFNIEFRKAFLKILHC
Description: (§1) α1 Adrenergic and Dopamine D2 Receptors. Methods: Binding and functional assays for al adrenergic and dopamine D2 receptors were performed by Eurofins Cerep according to their methods.
Dopamine D2 Receptor. Binding at 10 μM. The binding assay evaluated the affinity of test articles for the dopamine D2 receptor in transfected human embryonic kidney (HEK)-293 cells. For determining the binding in the D2S receptor assay, test article was incubated with 0.3 nM [^3H] methylspiperone or 1 nM [^3H] 7-hydroxy-2-N,N-dipropylaminotetralin (7-OH-DPAT). [^3H] Methylspiperone at 0.3 nM also was used as control ligand in the D2L binding assay. Cell membrane homogenates were incubated in duplicate at room temperature for 60 minutes with ligand in the absence or presence of test articles at 10 μM. After the incubation period, samples were filtered through glass fiber filters, the filters dried and then counted for radioactivity using a scintillation counter. Results are expressed as mean percent inhibition of control radioligand binding.

[3] = acidifiers evaluated; cited from earlier work
Water activity testing = format: physicochemical
Text: Water activity is a measure of how tightly bound the water is within a substance. To measure water activity, a sample is placed in a sealed vessel which is allowed to reach equilibrium. The final relative humidity (RH) in the vessel is reported as a fraction called “Aw”. Pure water has an Aw of 1.00. […] HygroLab 3 Bench Top Indicator was used to determine water activity testing. Before testing the samples, the equipment is calibrated at different relative humidity levels using RH standards (0% RH, 35% RH, and 80% RH) and at different temperatures to ensure accuracy of the probes. A known amount of sample is sealed inside the sample cell by twisting the cap in downward direction. The starting temperature is recorded before beginning the test. When the change in temperature before and after the test is not more than 0.5° C. record Aw.

α1 adrenergic receptor = α1 adrenergic receptor binding at 10 μM ([3H]prazosin, cerebral cortex membranes); parameters: species or system rat; settings: inhibition of control radioligand binding
Description: as §1
α1 Adrenergic Receptor. Binding at 10 μM. The binding assay evaluated the affinity of test article for the non-selective al adrenergic receptor in rat cerebral cortex. Membrane homogenates of cerebral cortex were incubated in duplicate for 60 minutes at room temperature with 0.25 nM [^3H]prazosin in the absence or presence of test articles at 10 μM. After the incubation period, samples were filtered through glass fiber filters, the filters dried and then counted for radioactivity using a scintillation counter. Results are expressed as mean percent inhibition of control radioligand binding.

SMILES: OC[C@@H](O)[C@@H](O)[C@H](O)[C@H](O)CO [Mannitol]
compatibility of excipient with the drug substance (chemical degradation, chiral purity) [1]: compatible, with some hydrolytic chemical degradation

SMILES: N#Cc1ccc(N2CCN(Cc3ccc(COc4cccc5c4CN([C@H]4CCC(=O)NC4=O)C5=O)cc3)CC2)c(F)c1 [Compound 1, (S)-4-(4-(4-(((2-(2,6-dioxopiperidin-3-yl)-1-oxoisoindolin-4-yl)oxy)methyl)benzyl)piperazin-1-yl)-3-fluorobenzonitrile]
IC50 (NCI-H929-1051): 1 nM
IC50 (MM cell lines): 0.07 to 4.3 nM
IC50 (NCI-H929): 0.07 nM
IC50 (OPM2-P10): 4.3 nM
IC50 (OPM2): 0.07 nM
precipitation risk [2]: low
Dopamine D2S % Inh. (@10 μM) (dopamine D2S receptor): 55/52

compatibility of excipient with the drug substance (chemical degradation, chiral purity) [1]: more compatible acidifier
SMILES: O=C(O)/C=C/C(=O)O [fumaric acid]

SMILES: OC[C@H]1O[C@@H](O[C@H]2[C@H](O)[C@@H](O)C(O)O[C@@H]2CO)[C@H](O)[C@@H](O)[C@H]1O (stereo partly shown) [Lactose]
compatibility of excipient with the drug substance (chemical degradation, chiral purity) [1]: compatible with little decrease in chiral purity

compatibility of excipient with the drug substance (chemical degradation, chiral purity) [1]: chemically incompatible
SMILES: O=C(O)CCC(=O)O [succinic acid]
pKa [3]: 4.18

compatibility of excipient with the drug substance (chemical degradation, chiral purity) [1]: chemically compatible
SMILES: CCCCCCCCCCCCCCCCCC(=O)O [Stearic Acid]

SMILES: N#Cc1ccc(N2CCN(Cc3ccc(COc4cccc5c4CN([C@H]4CCC(=O)NC4=O)C5=O)cc3)CC2)c(F)c1 [Form K of Compound 1, (S)-4-(4-(4-(((2-(2,6-dioxopiperidin-3-yl)-1-oxoisoindolin-4-yl)oxy)methyl)benzyl)piperazin-1-yl)-3-fluorobenzonitrile]
RH at which Form K converts to an anhydrous form (Water activity testing): < 20%

Adrenergic α1 % Inh. (@10 μM) (α1 adrenergic receptor): 102%
SMILES: O=C1CCC(N2Cc3c(OCc4ccc(CN5CCN(c6ccc(F)cc6F)CC5)cc4)cccc3C2=O)C(=O)N1 (racemic) [Compound A, 3-(4-((4-((4-(2,4-difluorophenyl)piperazin-1-yl)methyl)benzyl)oxy)-1-oxoisoindolin-2-yl)piperidine-2,6-dione]

SMILES: CCCCCCCCCCCCOS(=O)(=O)[O-].[Na+] [sodium lauryl sulfate (SLS), sodium lauryl sulfate]
compatibility of excipient with the drug substance (chemical degradation, chiral purity) [1]: loss of chiral purity and increase in chemical degradation chiefly by hydrolysis
